Source: patent US20090306227A1, “TABLET FOR REMOVING TONGUE COATING” (priority 2005, published 2009)

Assay: Solubility of saccharides in water at 37° C.
Format: physicochemical
Conditions: for Used Saccharide (Solubility at 37° C. (weight %)): value in parentheses under the saccharide name; for Solubility in water at 37° C.: unit from the definition, the table prints none
Method: The solubility can be determined by a method well-known to those skilled in the art. For example, solubility (% by weight) can be determined as follows. A solute is dissolved gradually in water of weight W1 at 37° C. When the largest amount of the solute is dissolved in the water, the weight of the solution is W2. The weight of the dissolved solute W3 (=W2−W1) is divided by the weight of the solution W2, and multiplied by 100 (i.e., converted to a percentage).

| Used Saccharide (Solubility at 37° C. (weight %)) | Solubility in water at 37° C. [% by weight] | Compound |
| --- | --- | --- |
| (68) weight % | 68 | OC[C@H]1O[C@@](CO)(O[C@H]2O[C@H](CO)[C@@H](O)[C@H](O)[C@H]2O)[C@@H](O)[C@@H]1O [Sucrose] |
| (44) weight % | 44 | OC[C@@H](O)[C@@H](O)CO [Erythritol] |
| (72) weight % | 72 | OC[C@@H](O)[C@H](O)[C@@H](O)CO [Xylitol] |
| (52) weight % | 52 | OC[C@H]1O[C@H](O[C@H]2O[C@H](CO)[C@@H](O)[C@H](O)[C@H]2O)[C@H](O)[C@@H](O)[C@@H]1O [Trehalose] |
| (40) weight % | 40 | OC[C@H]1O[C@H](OC[C@H]2OC(O)(CO)[C@@H](O)[C@@H]2O)[C@H](O)[C@@H](O)[C@@H]1O (stereo partly shown) [Palatinose] |
| (63) weight % | 63 | OC[C@@H](O)[C@@H](O[C@H]1O[C@H](CO)[C@@H](O)[C@H](O)[C@H]1O)[C@H](O)[C@@H](O)CO [Maltitol] |
| (74) weight % | 74 | OC[C@@H](O)[C@@H](O)[C@H](O)[C@@H](O)CO [Sorbitol] |
| (37) weight % | 37 | Palatinit |
| (70) weight % | 70 | OC[C@@H](O)[C@@H](O[C@@H]1O[C@H](CO)[C@H](O)[C@H](O)[C@H]1O)[C@H](O)[C@@H](O)CO [Lactitol] |
| (23) weight % | 23 | OC[C@@H](O)[C@@H](O)[C@H](O)[C@H](O)CO [Mannitol] |

| Compound | Used Saccharide (Solubility at 37° C. (weight %)) | Solubility in water at 37° C. [% by weight] |
| --- | --- | --- |
| O=C(CO)[C@@H](O)[C@H](O)[C@H](O)CO [Fructose] | (84) weight % | 84 |
